From the supplement of paper PMC10307832

Tests used:
Test in all cases: relative viability (nuclei count vs DMSO), 5 days (fraction); higher = more cells survive
Alisertib + OSI-027 = compound: COc1cc(Nc2ncc3c(n2)-c2ccc(Cl)cc2C(c2c(F)cccc2OC)=NC3)ccc1C(=O)O [Alisertib] + COc1cccc2cc(-c3nc([C@H]4CC[C@H](C(=O)O)CC4)n4ncnc(N)c34)[nH]c12 [OSI-027] (partner 0.5 µM)
How it was run: (§1)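 Five library-drug doses in √10 steps were combined with a fixed anchor-drug dose, or a single drug was given alone, by pin tool to lung cancer cell lines in 1536-well plates the day after seeding. Nuclei were stained and counted after 5 days. Relative viability is the nuclei count in treated wells over that in vehicle wells, taken as the median of duplicate plates.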

Alisertib + Lapatinib = compound: COc1cc(Nc2ncc3c(n2)-c2ccc(Cl)cc2C(c2c(F)cccc2OC)=NC3)ccc1C(=O)O [Alisertib] + CS(=O)(=O)CCNCc1ccc(-c2ccc3ncnc(Nc4ccc(OCc5cccc(F)c5)c(Cl)c4)c3c2)o1 [Lapatinib] (partner 2 µM)
How it was run: as §1

Alisertib + Linsitinib = compound: COc1cc(Nc2ncc3c(n2)-c2ccc(Cl)cc2C(c2c(F)cccc2OC)=NC3)ccc1C(=O)O [Alisertib] + C[C@]1(O)C[C@@H](c2nc(-c3ccc4ccc(-c5ccccc5)nc4c3)c3c(N)nccn32)C1 [Linsitinib] (partner 1 µM)
How it was run: as §1

Alisertib + Alpelisib = compound: COc1cc(Nc2ncc3c(n2)-c2ccc(Cl)cc2C(c2c(F)cccc2OC)=NC3)ccc1C(=O)O [Alisertib] + Cc1nc(NC(=O)N2CCC[C@H]2C(N)=O)sc1-c1ccnc(C(C)(C)C(F)(F)F)c1 [Alpelisib] (partner 2 µM)
How it was run: as §1

| Cell Line | relative viability (Alisertib + OSI-027; first compound 0.005 µM) | relative viability (Alisertib + OSI-027; first compound 0.01581 µM) | relative viability (Alisertib + OSI-027; first compound 0.05 µM) | relative viability (Alisertib + OSI-027; first compound 0.1581 µM) | relative viability (Alisertib + OSI-027; first compound 0.5 µM) | relative viability (Alisertib + Lapatinib; first compound 0.005 µM) | relative viability (Alisertib + Lapatinib; first compound 0.01581 µM) | relative viability (Alisertib + Lapatinib; first compound 0.05 µM) | relative viability (Alisertib + Lapatinib; first compound 0.1581 µM) | relative viability (Alisertib + Lapatinib; first compound 0.5 µM) | relative viability (Alisertib + Linsitinib; first compound 0.005 µM) | relative viability (Alisertib + Linsitinib; first compound 0.01581 µM) | relative viability (Alisertib + Linsitinib; first compound 0.05 µM) | relative viability (Alisertib + Linsitinib; first compound 0.1581 µM) | relative viability (Alisertib + Linsitinib; first compound 0.5 µM) | relative viability (Alisertib + Alpelisib; first compound 0.005 µM) | relative viability (Alisertib + Alpelisib; first compound 0.01581 µM) | relative viability (Alisertib + Alpelisib; first compound 0.05 µM) | relative viability (Alisertib + Alpelisib; first compound 0.1581 µM) | relative viability (Alisertib + Alpelisib; first compound 0.5 µM) |
| --- | --- | --- | --- | --- | --- | --- | --- | --- | --- | --- | --- | --- | --- | --- | --- | --- | --- | --- | --- | --- |
| 201T | 0.712 | 0.762 | 0.632 | 0.249 | 0.126 | 0.94 | 1.06 | 1.05 | 0.954 | 0.458 | 0.99 | 1.07 | 1 | 0.745 | 0.348 | 0.985 | 0.997 | 0.964 | 0.783 | 0.378 |
| A549 |  |  |  |  |  | 0.812 | 0.235 | 0.148 | 0.0742 | 0.0628 | 0.556 | 0.414 | 0.139 | 0.0745 | 0.0473 | 0.531 | 0.333 | 0.144 | 0.059 | 0.0557 |
| A-427 | 0.406 | 0.291 | 0.13 | 0.162 | 0.133 | 0.869 | 0.931 | 0.853 | 0.185 | 0.142 | 1.07 | 0.986 | 0.257 | 0.202 | 0.184 | 1.03 | 0.922 | 0.173 | 0.165 | 0.14 |
| ABC-1 | 0.42 | 0.375 | 0.339 | 0.195 | 0.185 | 1.22 | 1.1 | 1.05 | 0.91 | 0.616 | 0.661 | 0.707 | 0.584 | 0.416 | 0.204 | 0.979 | 0.724 | 0.929 | 0.475 | 0.223 |
| BEN | 0.296 | 0.265 | 0.24 | 0.217 | 0.158 | 0.707 | 0.585 | 0.261 | 0.203 | 0.221 | 0.83 | 0.878 | 0.259 | 0.208 | 0.205 | 1.05 | 0.923 | 0.37 | 0.232 | 0.218 |
| CAL-12T | 0.488 | 0.277 | 0.137 | 0.165 | 0.118 | 0.556 | 0.526 | 0.195 | 0.198 | 0.169 | 0.741 | 0.603 | 0.187 | 0.157 | 0.162 | 1.19 | 0.382 | 0.217 | 0.249 | 0.183 |
| COR-L23 | 0.739 | 0.661 | 0.517 | 0.133 | 0.13 | 0.929 | 0.759 | 0.47 | 0.165 | 0.124 | 0.794 | 0.799 | 0.401 | 0.178 | 0.121 | 0.777 | 0.697 | 0.369 | 0.155 | 0.0816 |
| COR-L 105 | 0.59 | 0.66 | 0.546 | 0.248 | 0.267 | 0.322 | 0.413 | 0.319 | 0.223 | 0.263 | 0.879 | 0.722 | 0.682 | 0.332 | 0.241 | 0.741 | 0.849 | 0.71 | 0.343 | 0.245 |
| Calu-6 |  |  |  |  |  | 0.925 | 0.541 | 0.382 | 0.204 | 0.216 | 0.733 | 0.763 | 0.295 | 0.129 | 0.162 | 0.771 | 0.566 | 0.249 | 0.188 | 0.191 |
| ChaGo-K-1 | 0.423 | 0.537 | 0.349 | 0.138 | 0.15 |  |  |  |  |  |  |  |  |  |  |  |  |  |  |  |
| EBC-1 |  |  |  |  |  | 0.224 | 0.21 | 0.188 | 0.178 | 0.152 | 0.678 | 0.731 | 0.211 | 0.179 | 0.147 | 0.578 | 0.597 | 0.272 | 0.225 | 0.153 |
| EKVX | 0.654 | 0.631 | 0.251 | 0.158 | 0.136 | 0.211 | 0.238 | 0.16 | 0.126 | 0.111 | 0.942 | 0.831 | 0.344 | 0.211 | 0.183 | 0.819 | 0.811 | 0.49 | 0.215 | 0.185 |
| EMC-BAC-2 | 0.334 | 0.29 | 0.231 | 0.217 | 0.178 | 0.764 | 0.813 | 0.671 | 0.267 | 0.236 | 0.752 | 0.595 | 0.298 | 0.279 | 0.202 | 0.701 | 0.567 | 0.296 | 0.259 | 0.143 |
| EPLC-272H | 0.275 | 0.282 | 0.256 | 0.131 | 0.124 | 0.756 | 0.612 | 0.846 | 0.152 | 0.112 | 0.998 | 0.865 | 0.921 | 0.3 | 0.131 | 0.858 | 0.838 | 0.486 | 0.266 | 0.133 |
| H3255 | 0.589 | 0.575 | 0.444 | 0.269 | 0.271 | 0.277 | 0.256 | 0.269 | 0.169 | 0.176 | 0.898 | 0.832 | 0.418 | 0.192 | 0.164 | 0.797 | 0.687 | 0.463 | 0.252 | 0.199 |
| HARA | 0.409 | 0.423 | 0.369 | 0.113 | 0.0564 | 0.616 | 0.631 | 0.848 | 0.129 | 0.0993 | 1.03 | 0.919 | 0.361 | 0.189 | 0.0844 | 0.86 | 0.878 | 0.363 | 0.129 | 0.0864 |
| HCC-15 | 0.578 | 0.504 | 0.227 | 0.118 | 0.12 | 0.746 | 0.671 | 0.392 | 0.122 | 0.109 | 0.863 | 0.725 | 0.275 | 0.159 | 0.113 | 0.875 | 0.662 | 0.229 | 0.148 | 0.106 |
